“And” between values parts separate entries of the source, which are not always exact repeats. Identical values can stand only once.
Assay: molar heat capacity at constant pressure
Settings: 101.33 kPa, Crystal

OC[C@@H](O)[C@H](O)[C@@H](O)CO [xylitol]
Settings | molar heat capacity at constant pressure
1 K, relaxation calorimetry | 0.0008271 J/K/mol
1.922 K, relaxation calorimetry | 0.005594 J/K/mol
2 K, relaxation calorimetry | 0.006331 J/K/mol
2.139 K, relaxation calorimetry | 0.007737 J/K/mol
2.374 K, relaxation calorimetry | 0.01068 J/K/mol
2.635 K, relaxation calorimetry | 0.0145 J/K/mol
2.93 K, relaxation calorimetry | 0.02028 J/K/mol
3 K, relaxation calorimetry | 0.02164 J/K/mol
3.25 K, relaxation calorimetry | 0.02792 J/K/mol
3.603 K, relaxation calorimetry | 0.03808 J/K/mol
4 K, relaxation calorimetry | 0.05265 J/K/mol and 0.05269 J/K/mol
4.437 K, relaxation calorimetry | 0.07193 J/K/mol
4.924 K, relaxation calorimetry | 0.1019 J/K/mol
5 K, relaxation calorimetry | 0.1065 J/K/mol
5.466 K, relaxation calorimetry | 0.1404 J/K/mol
6 K, relaxation calorimetry | 0.191 J/K/mol
6.063 K, relaxation calorimetry | 0.1974 J/K/mol
6.726 K, relaxation calorimetry | 0.2771 J/K/mol
7 K, relaxation calorimetry | 0.3152 J/K/mol
7.46 K, relaxation calorimetry | 0.3882 J/K/mol
8 K, relaxation calorimetry | 0.4898 J/K/mol
8.276 K, relaxation calorimetry | 0.5472 J/K/mol
9 K, relaxation calorimetry | 0.7186 J/K/mol
9.181 K, relaxation calorimetry | 0.7649 J/K/mol
10 K, relaxation calorimetry | 1.004 J/K/mol
10.2 K, relaxation calorimetry | 1.063 J/K/mol
11.29 K, relaxation calorimetry | 1.456 J/K/mol
12.52 K, relaxation calorimetry | 1.978 J/K/mol
13.9 K, relaxation calorimetry | 2.652 J/K/mol
15 K, relaxation calorimetry | 3.243 J/K/mol
15.43 K, relaxation calorimetry | 3.486 J/K/mol
17.11 K, relaxation calorimetry | 4.536 J/K/mol
19 K, relaxation calorimetry | 5.817 J/K/mol
20 K, relaxation calorimetry | 6.537 J/K/mol
21.08 K, relaxation calorimetry | 7.334 J/K/mol
23.4 K, relaxation calorimetry | 9.137 J/K/mol
25 K, relaxation calorimetry | 10.45 J/K/mol
25.98 K, relaxation calorimetry | 11.24 J/K/mol
28.85 K, relaxation calorimetry | 13.71 J/K/mol
30 K, relaxation calorimetry | 14.71 J/K/mol
32.02 K, relaxation calorimetry | 16.53 J/K/mol
35 K, relaxation calorimetry | 19.23 J/K/mol
35.54 K, relaxation calorimetry | 19.78 J/K/mol
39.45 K, relaxation calorimetry | 23.43 J/K/mol
40 K, relaxation calorimetry | 23.95 J/K/mol
43.77 K, relaxation calorimetry | 27.59 J/K/mol
45 K, relaxation calorimetry | 28.76 J/K/mol
48.58 K, relaxation calorimetry | 32.08 J/K/mol
50 K, relaxation calorimetry | 33.53 J/K/mol
53.91 K, relaxation calorimetry | 37.13 J/K/mol
55 K, relaxation calorimetry | 38.17 J/K/mol
59.82 K, relaxation calorimetry | 42.74 J/K/mol
60 K, relaxation calorimetry | 42.76 J/K/mol
65 K, relaxation calorimetry | 47.51 J/K/mol
66.39 K, relaxation calorimetry | 48.78 J/K/mol
70 K, relaxation calorimetry | 52.03 J/K/mol
73.7 K, relaxation calorimetry | 55.27 J/K/mol
75 K, relaxation calorimetry | 56.38 J/K/mol
80 K, relaxation calorimetry | 60.61 J/K/mol
81.8 K, relaxation calorimetry | 62.47 J/K/mol
85 K, relaxation calorimetry | 64.74 J/K/mol
90 K, relaxation calorimetry | 68.78 J/K/mol
90.79 K, relaxation calorimetry | 69.45 J/K/mol
95 K, relaxation calorimetry | 72.72 J/K/mol
100 K, relaxation calorimetry | 76.57 J/K/mol
100.73 K, relaxation calorimetry | 76.61 J/K/mol
110 K, relaxation calorimetry | 84.01 J/K/mol
110.86 K, relaxation calorimetry | 84.59 J/K/mol
120 K, relaxation calorimetry | 91.15 J/K/mol
120.92 K, relaxation calorimetry | 91.94 J/K/mol
130 K, relaxation calorimetry | 98.03 J/K/mol
130.99 K, relaxation calorimetry | 98.86 J/K/mol
140 K, relaxation calorimetry | 104.68 J/K/mol
141.06 K, relaxation calorimetry | 105.29 J/K/mol
150 K, relaxation calorimetry | 111.17 J/K/mol
151.18 K, relaxation calorimetry | 112.01 J/K/mol
160 K, relaxation calorimetry | 117.52 J/K/mol
161.27 K, relaxation calorimetry | 118.23 J/K/mol
170 K, relaxation calorimetry | 123.79 J/K/mol
171.37 K, relaxation calorimetry | 124.62 J/K/mol
180 K, relaxation calorimetry | 130 J/K/mol
181.44 K, relaxation calorimetry | 131.13 J/K/mol
188.15 K, Small sample (50 mg) DSC | 129.73 J/K/mol
189.15 K, Small sample (50 mg) DSC | 130.13 J/K/mol
190 K, relaxation calorimetry | 136.19 J/K/mol
190.15 K, Small sample (50 mg) DSC | 131.3 J/K/mol
191.15 K, Small sample (50 mg) DSC | 132.22 J/K/mol
191.51 K, relaxation calorimetry | 137.32 J/K/mol
192.15 K, Small sample (50 mg) DSC | 132.97 J/K/mol
193.15 K, Small sample (50 mg) DSC | 133.63 J/K/mol
194.15 K, Small sample (50 mg) DSC | 134.85 J/K/mol
195.15 K, Small sample (50 mg) DSC | 136.05 J/K/mol
196.15 K, Small sample (50 mg) DSC | 137.13 J/K/mol
197.15 K, Small sample (50 mg) DSC | 137.99 J/K/mol
198.15 K, Small sample (50 mg) DSC | 138.87 J/K/mol
199.15 K, Small sample (50 mg) DSC | 139.73 J/K/mol
200 K, relaxation calorimetry | 142.38 J/K/mol
200.15 K, Small sample (50 mg) DSC | 140.65 J/K/mol
201.15 K, Small sample (50 mg) DSC | 141.4 J/K/mol
201.63 K, relaxation calorimetry | 143.25 J/K/mol
202.15 K, Small sample (50 mg) DSC | 142.18 J/K/mol
203.15 K, Small sample (50 mg) DSC | 143.08 J/K/mol
204.15 K, Small sample (50 mg) DSC | 143.76 J/K/mol
205.15 K, Small sample (50 mg) DSC | 144.29 J/K/mol
206.15 K, Small sample (50 mg) DSC | 145.08 J/K/mol
207.15 K, Small sample (50 mg) DSC | 145.87 J/K/mol
208.15 K, Small sample (50 mg) DSC | 146.4 J/K/mol
209.15 K, Small sample (50 mg) DSC | 147.11 J/K/mol
210 K, relaxation calorimetry | 148.6 J/K/mol
210.15 K, Small sample (50 mg) DSC | 147.83 J/K/mol
211.15 K, Small sample (50 mg) DSC | 148.54 J/K/mol
211.72 K, relaxation calorimetry | 149.26 J/K/mol
212.15 K, Small sample (50 mg) DSC | 149.22 J/K/mol
213.15 K, Small sample (50 mg) DSC | 149.76 J/K/mol
214.15 K, Small sample (50 mg) DSC | 150.56 J/K/mol
215.15 K, Small sample (50 mg) DSC | 151.28 J/K/mol
216.15 K, Small sample (50 mg) DSC | 152.02 J/K/mol
217.15 K, Small sample (50 mg) DSC | 152.63 J/K/mol
218.15 K, Small sample (50 mg) DSC | 153.29 J/K/mol
219.15 K, Small sample (50 mg) DSC | 154.13 J/K/mol
220 K, relaxation calorimetry | 154.86 J/K/mol
220.15 K, Small sample (50 mg) DSC | 154.86 J/K/mol
221.15 K, Small sample (50 mg) DSC | 155.65 J/K/mol
221.81 K, relaxation calorimetry | 156.12 J/K/mol
222.15 K, Small sample (50 mg) DSC | 156.3 J/K/mol
223.15 K, Small sample (50 mg) DSC | 157.01 J/K/mol
224.15 K, Small sample (50 mg) DSC | 157.66 J/K/mol
225.15 K, Small sample (50 mg) DSC | 158.24 J/K/mol
226.15 K, Small sample (50 mg) DSC | 158.84 J/K/mol
227.15 K, Small sample (50 mg) DSC | 159.41 J/K/mol
228.15 K, Small sample (50 mg) DSC | 160.16 J/K/mol
229.15 K, Small sample (50 mg) DSC | 160.62 J/K/mol
230 K, relaxation calorimetry | 161.19 J/K/mol
230.15 K, Small sample (50 mg) DSC | 161.2 J/K/mol
231.15 K, Small sample (50 mg) DSC | 162.12 J/K/mol
231.89 K, relaxation calorimetry | 162.24 J/K/mol
232.15 K, Small sample (50 mg) DSC | 162.73 J/K/mol
233.15 K, Small sample (50 mg) DSC | 163.22 J/K/mol
234.15 K, Small sample (50 mg) DSC | 164.01 J/K/mol
235.15 K, Small sample (50 mg) DSC | 164.81 J/K/mol
236.15 K, Small sample (50 mg) DSC | 165.55 J/K/mol
237.15 K, Small sample (50 mg) DSC | 166.14 J/K/mol
238.15 K, Small sample (50 mg) DSC | 166.88 J/K/mol
239.15 K, Small sample (50 mg) DSC | 167.65 J/K/mol
240 K, relaxation calorimetry | 167.6 J/K/mol
240.15 K, Small sample (50 mg) DSC | 168.23 J/K/mol
241.15 K, Small sample (50 mg) DSC | 168.92 J/K/mol
241.89 K, relaxation calorimetry | 168.66 J/K/mol
242.15 K, Small sample (50 mg) DSC | 169.52 J/K/mol
243.15 K, Small sample (50 mg) DSC | 170.22 J/K/mol
244.15 K, Small sample (50 mg) DSC | 170.79 J/K/mol
245.15 K, Small sample (50 mg) DSC | 171.35 J/K/mol
246.15 K, Small sample (50 mg) DSC | 172.07 J/K/mol
247.15 K, Small sample (50 mg) DSC | 172.62 J/K/mol
248.15 K, Small sample (50 mg) DSC | 173.32 J/K/mol
249.15 K, Small sample (50 mg) DSC | 173.97 J/K/mol
250 K, relaxation calorimetry | 174.1 J/K/mol
250.15 K, Small sample (50 mg) DSC | 174.75 J/K/mol
251.15 K, Small sample (50 mg) DSC | 175.38 J/K/mol
252.05 K, relaxation calorimetry | 175.66 J/K/mol
252.15 K, Small sample (50 mg) DSC | 176.09 J/K/mol
253.15 K, Small sample (50 mg) DSC | 176.77 J/K/mol
254.15 K, Small sample (50 mg) DSC | 177.72 J/K/mol
255.15 K, Small sample (50 mg) DSC | 178.41 J/K/mol
256.15 K, Small sample (50 mg) DSC | 179.25 J/K/mol
257.15 K, Small sample (50 mg) DSC | 180.21 J/K/mol
258.15 K, Small sample (50 mg) DSC | 180.68 J/K/mol
259.15 K, Small sample (50 mg) DSC | 181.27 J/K/mol
260 K, relaxation calorimetry | 180.7 J/K/mol
260.15 K, Small sample (50 mg) DSC | 182.15 J/K/mol
